Source: BindingDB's records for doi:10.1016/0960-894X(95)00055-X (1995)

Target: Trehalase (Sus scrofa)
Test: Evaluated for the inhibition of trehalase from porcine kidneys

SMILES: OCC1=CC(NC2COC(CO)C(O)C2O)C(O)C(O)C1O (stereo unspecified) [6-(4,5-Dihydroxy-6-hydroxymethyl-tetrahydro-pyran-3-ylamino)-4-hydroxymethyl-cyclohex-4-ene-1,2,3-triol]
- Ki: 0.18 µM
